Data reported in ChEMBL document CHEMBL1154535, “3-Hydroxyisoquinolines as inhibitors of HCV NS5b RNA-dependent RNA polymerase” (Bioorg Med Chem Lett, 2009).
In brackets after ≈: the same amount, converted by molar mass.

Assays:
[1] = test system: Hepatitis C virus; assay: Antiviral activity against HCV 1b in Huh-7/2209-23 cells by replicon assay; assay type: functional, organism-based, Hepacivirus hominis; conditions: genotype 1b
[2] = test system: Hepatitis C virus; assay: Inhibition of HCV 1b NS5B polymerase; set-up: species or system Hepatitis C virus subtype 1b
[3] = Aqueous solubility of compound; assay type: physicochemical; conditions: buffer

Row | SMILES | IC50 [1] [µM] | IC50 [2] [µM] | solubility [3] [µg/mL]
1 | O=S1(=O)N=C(c2nc(Cc3ccc(F)cc3)c3ccccc3c2O)c2cccc(-c3cncnc3)c21 | 0.38 | 1.8 | 9 (≈ 18.1 µM)
2 | O=S1(=O)N=C(c2nc(Cc3ccc(F)cc3)c3ccccc3c2O)c2cccc(-c3cn[nH]c3)c21 | 0.78 | 0.72 | –
3 | COc1cccc2c1S(=O)(=O)N=C2c1nc(Cc2ccc(F)cc2)c2ccccc2c1O | 0.76 | 0.61 | 40 (≈ 89.2 µM)
4 | O=S1(=O)N=C(c2nc(CCC3CC3)c3ccccc3c2O)c2ccccc21 | 2.7 | 1 | 10 (≈ 26.4 µM)
5 | O=S1(=O)N=C(c2nc(Cc3ccc(F)cc3)c3ccccc3c2O)c2ccccc21 | 0.44 | – | 16 (≈ 38.2 µM)
6 | O=S1(=O)N=C(c2nc(Cc3ccccc3)c3ccccc3c2O)Nc2ccccc21 | – | 47 | –
7 | CC(C)CCc1nc(C2=NS(=O)(=O)c3ccccc32)c(O)c2ccccc12 | – | 4.5 | –
8 | CC(C)CCc1nc(C2=NS(=O)(=O)c3ccccc3N2)c(O)c2ccccc12 | – | 51 | –
9 | O=S1(=O)N=C(c2nc(Cc3ccc(F)cc3)c3ccccc3c2O)c2cccc(-c3ccccc3)c21 | 0.8 | 3.9 | 41 (≈ 82.9 µM)
10 | O=c1cccc(-c2cccc3c2S(=O)(=O)N=C3c2nc(Cc3ccc(F)cc3)c3ccccc3c2O)[nH]1 | 0.4 | 0.73 | 6 (≈ 11.7 µM)

Next, values leading:

Row | IC50 [1] [µM] | IC50 [2] [µM] | solubility [3] [µg/mL] | SMILES
11 | 0.15 | 0.55 | 3 (≈ 6.05 µM) | O=S1(=O)N=C(c2nc(Cc3ccc(F)cc3)c3ccccc3c2O)c2cccc(-c3cccnc3)c21
12 | 1.1 | 0.35 | 3 (≈ 5.88 µM) | O=S1(=O)N=C(c2nc(Cc3ccc(F)cc3)c3ccccc3c2O)c2cccc(-c3cccc(O)c3)c21
13 | 0.94 | 0.53 | 17 (≈ 30.8 µM) | CC(=O)Nc1cccc(-c2cccc3c2S(=O)(=O)N=C3c2nc(Cc3ccc(F)cc3)c3ccccc3c2O)c1
14 | 0.075 | 0.41 | 7 (≈ 13.7 µM) | O=c1ccc(-c2cccc3c2S(=O)(=O)N=C3c2nc(Cc3ccc(F)cc3)c3ccccc3c2O)c[nH]1
15 | 0.43 | 0.58 | 2 (≈ 4.42 µM) | O=S1(=O)N=C(c2nc(Cc3ccc(F)cc3)c3ccccc3c2O)c2cccc(Cl)c21
